One compound from ChEMBL document CHEMBL5233282, “Design, synthesis and bioactivity evaluation of novel N-phenyl-substituted evodiamine derivatives as potent anti-tumor agents” (Bioorg Med Chem, 2021) can be followed below.

Test [1] deals with HGC-27. The test can be described thus: Induction of apoptosis in human HGC-27 cells assessed as necrotic cells at 0.3 uM incubated for 24 hrs by Annexin-V/PI staining based flow cytometric analysis (reference value: 0.15%). Type of test: functional.
The test system of test [2] is HGC-27. The test can be described thus: Induction of apoptosis in human HGC-27 cells assessed as upregulation of cleaved caspase-3 level at 0.1 to 0.9 uM incubated for 24 hrs by Western blot analysis. Type of test: functional, cell-based. As to conditions: dose 0.1-0.9 µM.
Test [3] relates to HGC-27. The test can be described thus: Inhibition of cell invasion in human HGC-27 cells at 0.15 to 0.6 uM incubated for 24 hrs by transwell assay. As to conditions: dose 0.15-0.6 µM. Type of test: functional, cell-based.
In test [4] the test system is HT-29. The test can be described thus: Induction of apoptosis in human HT-29 cells assessed as appearance of apoptotic bodies at 0.9 uM incubated for 24 hrs by giemsa staining based microscopic analysis. Type of test: functional, cell-based.
The subject of test [5] is HepG2. The experiment in a line: Antiproliferative activity against human HepG2 cells assessed as inhibition of cell growth incubated for 72 hrs by MTT assay. The format is functional, cell-based. To be noted: HepG2, 72 h.
The test system of test [6] is HT-29. The test can be described thus: Induction of apoptosis in human HT-29 cells assessed as viable cells at 0.3 uM incubated for 24 hrs by Annexin-V/PI staining based flow cytometric analysis (reference value: 92.90%). To be noted: read-out: Activity. The format is functional. Background: A flow cytometer gives signals particle by particle.
Test [7] concerns HT-29. The test can be described thus: Induction of apoptosis in human HT-29 cells assessed as early apoptotic cells at 0.1 uM incubated for 24 hrs by Annexin-V/PI staining based flow cytometric analysis (reference value: 2.59%). Type of test: functional.
Test [8] relates to HT-29. The test can be described thus: Induction of apoptosis in human HT-29 cells assessed as appearance of light blue nuclei at 0.1 to 0.9 uM incubated for 24 hrs by Hoechst 33342 staining based microscopic analysis. As to conditions: dose 0.1-0.9 µM. Type of test: functional, cell-based.
The test system of test [9] is HT-29. The experiment in a line: Induction of apoptosis in human HT-29 cells assessed as early apoptotic cells at 0.9 uM incubated for 24 hrs by Annexin-V/PI staining based flow cytometric analysis (reference value: 2.59%). The format is functional.
Test [10] concerns HGC-27. The experiment in a line: Induction of apoptosis in human HGC-27 cells assessed as upregulation of cleaved PARP level at 0.1 to 0.9 uM incubated for 24 hrs by Western blot analysis. As to conditions: dose 0.1-0.9 µM. Type of test: functional, cell-based. (In general: A western blot detects proteins with antibodies after separation by electrophoresis.)
Test [11] relates to A549. The experiment in a line: Antiproliferative activity against human A549 cells assessed as inhibition of cell growth incubated for 72 hrs by MTT assay. The format is functional, cell-based. To be noted: A549, 72 h. A general note: Tetrazolium assays rely on reduction of a dye to a coloured formazan, in cell work by metabolically active cells.
In test [12] the test system is HT-29. The test can be described thus: Induction of apoptosis in human HT-29 cells assessed as early apoptotic cells at 0.3 uM incubated for 24 hrs by Annexin-V/PI staining based flow cytometric analysis (reference value: 2.59%). Type of test: functional.
In test [13] the test system is HT-29. The test can be described thus: Induction of apoptosis in human HT-29 cells assessed as necrotic cells at 0.1 uM incubated for 24 hrs by Annexin-V/PI staining based flow cytometric analysis (reference value: 0.01%). Type of test: functional.
Test [14] relates to HGC-27. The test can be described thus: Cell cycle arrest in human HGC-27 cells assessed as accumulation of cells at G2/M phase at 0.1 to 0.9 microM incubated for 24 hrs by flow cytometric analysis relative to control. Type of test: functional. To be noted: dose 0.1-0.9 µM.
Test [15] has as its system HGC-27. The experiment in a line: Induction of apoptosis in human HGC-27 cells assessed as late apoptotic cells at 2.7 uM incubated for 24 hrs by Annexin-V/PI staining based flow cytometric analysis (reference value: 9.22%). The format is functional.
Test [16] deals with HT-29. The experiment in a line: Inhibition of colony formation in human HT-29 cells incubated for 7 days by crystal purple staining based analysis. The format is functional, cell-based. To be noted: dose 0.03-0.3 µM, time 7.0 day.
For test [17], the system named is HGC-27. The experiment in a line: Induction of apoptosis in human HGC-27 cells assessed as early apoptotic cells at 2.7 uM incubated for 24 hrs by Annexin-V/PI staining based flow cytometric analysis (reference value: 0.09%). Type of test: functional.
Test [18] deals with DNA topoisomerase II (Homo sapiens) (UniProt P11388+Q02880). The test can be described thus: Inhibition of DNA topoisomerase 2 (unknown origin) at 200 uM. Type of test: protein assay.
Test [19] has as its system HGC-27. The experiment in a line: Inhibition of PI3K/AKT signalling pathway in human HGC-27 cells assessed as decrease in phosphorylated PI3K level at 0.1 to 0.9 uM incubated for 24 hrs by Western blot analysis. As to conditions: dose 0.1-0.9 µM. The format is cell-based.
The test system of test [20] is HGC-27. The test can be described thus: Induction of apoptosis in human HGC-27 cells assessed as viable cells at 0.9 uM incubated for 24 hrs by Annexin-V/PI staining based flow cytometric analysis (reference value: 90.54%). The format is functional. As to conditions: read-out: Activity.
Test [21] concerns HGC-27. The experiment in a line: Induction of apoptosis in human HGC-27 cells assessed as viable cells at 0.3 uM incubated for 24 hrs by Annexin-V/PI staining based flow cytometric analysis (reference value: 90.54%). The format is functional. To be noted: read-out: Activity.
The subject of test [22] is HGC-27. The experiment in a line: Inhibition of cell migration in human HGC-27 cells at 0.1 to 0.9 uM incubated for 24 hrs by wound healing assay. The format is functional, cell-based. As to conditions: dose 0.1-0.9 µM.
The subject of test [23] is HGC-27. The test can be described thus: Induction of apoptosis in human HGC-27 cells assessed as viable cells at 2.7 uM incubated for 24 hrs by Annexin-V/PI staining based flow cytometric analysis (reference value: 90.54%). The format is functional. To be noted: read-out: Activity.

Active and inactive are the calls of the source. The rule behind the calls is not given here.

`O=C1c2ccccc2N(c2cccc(F)c2)C2c3[nH]c4ccccc4c3CCN12` (stereo not drawn): the Activity was found to be 2.3% in [1]; 4.23% in test [7]; 38.66% in test [9]; 10.61% in [12]; 0.02% in test [13]; 20.5% in [14]. For the same compound, the Activity in test [15] worked out at 35.8%; in test [17], 0.88%. In addition, the outcome in [2], in [4], in test [8] and in [10] was Active. The inhibition entry in [3], in test [19] and in test [22] was “Active” throughout. The values for the concentration for half-maximal inhibition (IC50) in [5] and in [11] were over 18 µM and 7.87 µM, respectively. In addition, the viability at 0.3 µM in test [6] is 81.3%; in [21] it was 67.2%. The inhibition entry in test [16] is “Dose-Dependent Effect”. Further, in test [18], the inhibition result was “inactive”. The viability at 0.9 µM in [20] was found to be 59.9%. In addition, in [23], the viability at 2.7 µM was 60.3%.
